Test results as given in publication PMC8448092, “Inhibitory Compounds Targeting Plasmodium falciparum Gyrase B” (Antimicrobial Agents and Chemotherapy, 2021).
Where two headings read alike, the source gives them in different places.

Tests used:
EcA2PfB2 [1] = biological target: T1, EcA2PfB2 (Plasmodium falciparum, UniProt Q8I528); test: biochemical; format: biochemical, Plasmodium falciparum GyrB with Escherichia coli GyrA; conditions: for Sensitivity of hybrid complex to known bacterial gyrase inhibitors: supercoiling, Fig. S1D and E
Method: (§1) A supercoiling assay was utilized to test a library of compounds previously selected for binding to EcA2PfB2 but not EcGyr. The library was a kind gift from Yasumitsu Kondoh, RIKEN. The EcGyr complex was used as a control allowing selection for specific compounds that target PfB. Supercoiling assays were carried out in a buffer consisting of 35 mM Tris-HCl (pH 7.5), 24 mM KCl, 4 mM MgCl2, 2 mM DTT, 1.8 mM spermidine, 1 mM ATP, 6.5% (wt/vol) glycerol, and 0.1 mg/ml bovine serum albumin (BSA). The hybrid (EcA2PfB2) complex or EcGyr complex was formed in the storage buffer (50 mM Tris-HCl [pH 7.5], 100 mM KCl, 10% [wt/vol] glycerol, 1 mM EDTA, 2 mM DTT). In a 30-μl reaction, the gyrase complex and 0.5 μg of pBR322 relaxed DNA (Inspiralis, United Kingdom) were assembled on ice and incubated at 37°C for 30 min. The reaction was then stopped by adding an equal volume of stop solution (40% sucrose, 100 mM Tris-HCl [pH 7.5], 1 mM EDTA, 0.5 mg/ml bromophenol blue) and extracted by mixing with 30 μl chloroform-isoamyl alcohol (24:1). The samples were centrifuged at 14,000 × g for 1 min, and the aqueous phase was collected and loaded onto a 1% 1× Tris-acetate-EDTA (TAE) agarose gel. The DNA products were resolved by electrophoresis at 80 V for 120 min and visualized by UV irradiation. The images were then analyzed using ImageJ v.1.47 to obtain the intensity of the supercoiled DNA band. Gyrase with 1% dimethyl sulfoxide (DMSO) was used as the control. The percentage of supercoiled DNA (% SC) was normalized using samples with gyrase in the absence of inhibitor as the full supercoiling control and was plotted against PPG concentration. Data were fitted to the equation % SC = ae^b^[PPG], where a and b are function parameters, using OriginLab Origin (Pro) v.2020b.

EcGyr [2] = biological target: T2, EcGyr (Escherichia coli, UniProt P0AES4+P0AES6); test: DNA supercoiling assay, E. coli gyrase; format: biochemical; conditions: relaxed pBR322, 37°C 30 min, 1% DMSO, n = 3; read-out: IC50 supercoiling inhibitory activity, EcGyr
T2 construct: made in house
Method: as §1, with “Gyrase with 1% dimethyl sulfoxide (DMSO) was used as the control. The percentage of supercoiled DNA (% SC) was normalized using samples with gyrase in the absence of inhibitor as the full supercoiling control and was plotted against PPG concentration. Data were fitted to the equation % SC = ae^b^[PPG], where a and b are function parameters, using OriginLab Origin (Pro) v.2020b.” left out

P. falciparum 3D7 [3] = conditions: growth in vitro; ref [25], [33]; cited from earlier work
EcA2PfB2 [4] = biological target: T1, EcA2PfB2; test: ATP hydrolysis assay (malachite green), hybrid gyrase; format: biochemical, Plasmodium falciparum GyrB with Escherichia coli GyrA
Method: The ATP hydrolysis reaction was performed as follows. […] The protein concentrations used in the assay were as follows: 1 μM PfB, 0.5 μM EcA2PfB2, and 100 nM EcGyr. A malachite green assay kit (Sigma-Aldrich) was used to measure the released phosphate in the reaction. In brief, malachite green reagent was added to the reaction mixture, and the mixture was further incubated for 10 min. The formed color was measured at 620 nm using a plate reader (SpectraMAX190; Molecular Devices). The amount of released phosphate was calculated based on a calibration curve covering a linear range of 50 to 250 pmol using eight concentrations, which was prepared for each measurement independently. Experiments were carried out in triplicate.

EcGyr [5] = biological target: T2, EcGyr; test: ATP hydrolysis assay (malachite green), EcGyr; format: biochemical; conditions: 100 nM EcGyr
Method: (§2) The ATP hydrolysis reaction was performed as follows. Enzyme was incubated in the assay buffer (50 mM Tris-HCl [pH 7.5], 125 mM KCl, 1 mM EDTA, 5 mM MgCl2, 5 mM DTT, 10% glycerol) with test compounds at various concentrations, 1 mM ATP, and 10.5 nM linear pBR322 DNA for 30 min at room temperature. The protein concentrations used in the assay were as follows: 1 μM PfB, 0.5 μM EcA2PfB2, and 100 nM EcGyr. A malachite green assay kit (Sigma-Aldrich) was used to measure the released phosphate in the reaction. In brief, malachite green reagent was added to the reaction mixture, and the mixture was further incubated for 10 min. The formed color was measured at 620 nm using a plate reader (SpectraMAX190; Molecular Devices). The amount of released phosphate was calculated based on a calibration curve covering a linear range of 50 to 250 pmol using eight concentrations, which was prepared for each measurement independently. Experiments were carried out in triplicate.

EcB = biological target: T3, EcB (Escherichia coli, UniProt P0AES6); test: Microscale thermophoresis binding to EcB; conditions: 1:1 binding model, 100 nM labeled protein, 5% DMSO, room temperature; read-out: Kd for EcB (MST)
T3 construct: made in house
Method: (§3) Microscale thermophoresis (MST) experiments were performed using a Monolith NT.115 instrument (NanoTemper). Proteins (PfB and EcB) were labeled with Red 2nd Generation labeling kits (NanoTemper) in which the fluorescent red dye was coupled with protein via NHS coupling. Labeled protein (100 nM) was mixed with PPG (Activate Scientific, dissolved in DMSO to a final concentration of 5%) and in MST buffer {240 mM NaPi (pH 7.4), 274 mM NaCl, 54 mM KCl, 100 μM TCEP [Tris(2-carboxyethyl)phosphine hydrochloride], 0.05% Tween 20, 5% DMSO} and incubated in the dark for 15 min. The samples were applied onto capillaries (Monolith NT.115 MST Premium coated capillaries), and the fluorescence signal was measured using MO.Control software (Nanotemper). Initial fluorescence signal was used for binding analysis, and Kd was calculated using 1:1 binding model. Results were baseline corrected and normalized for amplitude using MO.Control software (Nanotemper). The Kd values were calculated based on three independent measurements. All experiments were performed at room temperature.

EcA2PfB2 [6] = biological target: T1, EcA2PfB2; test: EMSA DNA binding, hybrid gyrase; parameters: species or system Plasmodium falciparum GyrB with Escherichia coli GyrA; conditions: 147 bp DNA, 200 nM complex
Method: (§4) DNA binding assays were carried out using electrophoretic mobility shift assay (EMSA) with 147 bp dsDNA (based on the preferred gyrase cleavage site from plasmid pBR322) ([31]). In brief, 20 nM DNA was mixed with 200 nM reconstituted complex (hybrid or EcGyr) or 1 μM PfB in an assay buffer (30 mM Tris-HCl [pH 7.5], 75 mM KCl, 2 mM MgCl2, 6% glycerol, 1 mM DTT) and PPG for 1 h at room temperature. The samples were resolved in a 5% polyacrylamide gel in TBM buffer (90 mM Tris-borate, pH 7.5, 4 mM MgCl2) for 1 h at 80 V. The gel was stained with SYBR gold (Thermo) and visualized under UV light.

PfB [7] = biological target: T4, PfB (Plasmodium falciparum, UniProt Q8I528); test: Microscale thermophoresis binding to PfB
Method: as §3

PfB [8] = biological target: T4, PfB; test: EMSA DNA binding, PfB; conditions: 147 bp DNA, 1 μM PfB
Method: as §4

EcA2PfB2 [9] = biological target: T1, EcA2PfB2; test: DNA cleavage assay; format: biochemical, Plasmodium falciparum GyrB with Escherichia coli GyrA; conditions: 150 nM EcA2PfB2, supercoiled DNA, no ATP
Method: 22 The purified proteins (2 µg) were subjected to a 10% SDS PAGE and resolved by
23 electrophoresis at 180 V for 40 minutes. The protein bands were visualized by Coommassie
26 The DNA cleavage assay was performed in the same buffer conditions as for
27 supercoiling but ATP was omitted and supercoiled DNA was used instead of relaxed DNA.
28 EcA2PfB2 complex (150 nM) was incubated with 0.5 µg of supercoiled DNA in the
29 absence/presence of inhibitors for 60 min at 37 °C. In order to monitor the production of
30 linearized DNA, protein was removed by addition of 3 µl of 2% SDS and 1 µl of proteinase K
31 (>700 U) followed by further incubation at 37 °C for 30 min. The DNA was then extracted and
32 resolved in gel electrophoresis as described.

PfB [10] = biological target: T4, PfB; test: ATP hydrolysis assay (malachite green), PfB; format: biochemical; conditions: 1 μM PfB
Method: as §2

EcGyr [11] = biological target: T2, EcGyr; test: EMSA DNA binding, EcGyr; conditions: 147 bp DNA, 200 nM complex
Method: as §4

P. falciparum 3D7 [12] = test: P. falciparum growth inhibition in vitro (SYBR green); format: cell-based; conditions: Plasmodium falciparum, 96 h of treatment
Method: Tests on parasites were performed by Anti-infectives Screening Core Services at NYU School of Medicine based on previously published protocol ([44]). P. falciparum strain 3D7 was used for all determinations. Using 96-well plates, 100 μl of P. falciparum growth medium (RPMI 1640, 25 mM HEPES, 0.1 mg/ml gentamicin, 0.05 mg/liter hypoxanthine [pH 6.75]), supplemented with 0.25% sodium bicarbonate and 0.5% Albumax II (Invitrogen), was added to each well. A 10 mM stock of PPG in DMSO was then serially diluted in triplicate. DMSO at the highest concentration used (0.5%) was tested in parallel as a control. Asynchronous P. falciparum in a 100-μl volume was then added to each well at 0.25% late-stage parasitemia with 5% hematocrit, as well as controls (medium, red blood cells, P. falciparum, or P. falciparum with 2 μM chloroquine). The plates were placed in a sealed chamber and maintained under atmospheric conditions of 5% oxygen, 5% carbon dioxide, and 90% nitrogen at 37°C for 96 h. To determine the cell viability, a SYBR green assay for rapid assessment was performed.
After incubation, plates were placed at −80°C for 24 h. The plates were then thawed at 37°C for 4 h. Once thawed, 100 μl of from each resuspended well was transferred into a black, 96-well plate. […] Plates were analyzed on a fluorescence plate reader (Victor) at excitation and emission wavelengths of 485 and 530 nm, respectively. […]

Question: With `O=C1c2ccccc2C(=O)c2c1cc(S(=O)(=O)O)c(O)c2O` [ARS, 1,2-dihydroxy-3-(oxysulfonyl)-9,10-anthracenedione] as the compound, how does the IC50 (EcA2PfB2 [1]) read?
Answer: 55.6 ± 6.74 µM

Question: And the IC50 (EcGyr [2])?
Answer: > 100 µM

Question: Which results are given for `O=C(O)c1cn(C2CC2)c2cc(N3CCNCC3)c(F)cc2c1=O` [CIP, ciprofloxacin, reference compound]?
Answer: IC50 (P. falciparum 3D7 [3]): 3 ± 0.5 µM; Sensitivity of hybrid complex to known bacterial gyrase inhibitors (EcA2PfB2 [1]): sensitive

Question: For `CO[C@@H]1[C@@H](OC(N)=O)[C@@H](O)[C@H](Oc2ccc3c(O)c(NC(=O)c4ccc(O)c(CC=C(C)C)c4)c(=O)oc3c2C)OC1(C)C` [Novobiocin, reference compound], which “Sensitivity of hybrid complex to known bacterial gyrase inhibitors” value (EcA2PfB2 [1]) is on record?
Answer: sensitive

Question: For `O=c1c(O)cccc2cc(O)c(O)c(O)c12` [PPG, 3,9,10,11-tetrahydroxybicyclo[5.4.0]undeca-1(7),3,5,8,10-pentaen-2-one], which “Effect on ATPase activity of EcA2PfB2 in the absence of DNA” value (EcA2PfB2 [4]; 0.5 μM EcA2PfB2) is on record?
Answer: decreased the ATPase activity in both the absence and presence of DNA

Question: And the “Effect on DNA-induced ATPase activity of EcA2PfB2” value (EcA2PfB2 [4]; 0.5 μM EcA2PfB2, with DNA)?
Answer: inhibited the DNA-induced ATPase activity of EcA2PfB2, although this was more modest

Question: And the “Effect on intrinsic and enhanced ATP hydrolysis by EcB in complex with EcA” value (EcGyr [5])?
Answer: little affected

Question: What about the Kd (EcB) of the same compound?
Answer: ~4.54 µM

Question: And the “PPG concentration at which the DNA-EcA2PfB2 complex was disrupted” value (EcA2PfB2 [6])?
Answer: 10 µM

Question: What about the IC50 (EcA2PfB2 [1]) of the same compound?
Answer: 9.56 ± 1.94 µM

Question: What about the Kd (PfB [7]) of the same compound?
Answer: ~1.03 µM

Question: And the “PPG concentration at which formation of the DNA-PfB complex was inhibited” value (PfB [8])?
Answer: approximately 20 μM

Question: What about the “Linear DNA formation (cleavage complex stabilization)” value (EcA2PfB2 [9]) of the same compound?
Answer: did not observe any linear DNA formation

Question: What about the “Effect on DNA-enhanced ATP hydrolysis of PfB” value (PfB [10]; 10.5 nM linear pBR322 DNA, 1 mM ATP) of the same compound?
Answer: decreased this DNA-enhanced ATP hydrolysis of PfB in a dose-dependent manner

Question: What about the “Effect on intrinsic ATPase activity of PfB” value (PfB [10]; no DNA) of the same compound?
Answer: remained unchanged

Question: And the “Effect on DNA-EcGyr complex” value (EcGyr [11])?
Answer: remained intact

Question: And the IC50 (EcGyr [2])?
Answer: > 1000 µM

Question: What about the IC50 (P. falciparum 3D7 [12]) of the same compound?
Answer: 92 ± 16 µM
